IC50 data for 16 compounds are collected here from ChEMBL document CHEMBL4052738, “Design and synthesis of 4-morpholino-6-(1,2,3,6-tetrahydropyridin-4-yl)-N-(3,4,5-trimethoxyphenyl)-1,3,5-triazin-2-amine analogues as tubulin polymerization inhibitors” (Bioorg Med Chem Lett, 2017).

Holding throughout (type): functional, cell-based
The test system of one test is HepG2. The test can be described thus: Antiproliferative activity against human HepG2 cells after 48 hrs by sulforhodamine B assay. The settings on record: HepG2, 48 h.
A further test concerns A549. The test can be described thus: Antiproliferative activity against human A549 cells after 48 hrs by sulforhodamine B assay. As to conditions: A549, 48 h. Background: The SRB assay estimates cell density from bound dye.
A further test deals with HeLa. Kind of test: Antiproliferative activity against human HeLa cells after 48 hrs by sulforhodamine B assay.
In a further test the test system is MCF7. The test can be described thus: Antiproliferative activity against human MCF7 cells after 48 hrs by sulforhodamine B assay. The settings on record: MCF7, 48 h.

The term IC50 denotes the point on the concentration scale where inhibition reaches its midpoint. In the case of `COc1ccc(/C=C\c2cc(OC)c(OC)c(OC)c2)cc1O` [COMBRETASTATIN A4], the IC50 with HepG2 stood at 4.3 µM; in the test on A549, 5.3 µM; with HeLa, 5.8 µM; with MCF7, 4.2 µM.

In the case of `COc1ccc(S(=O)(=O)N2CC=C(c3nc(Nc4cc(OC)c(OC)c(OC)c4)nc(N4CCOCC4)n3)CC2)cc1`, the IC50 in the test with HepG2 turned out to be 30.6 µM; with A549 it was 34.9 µM; in the test on HeLa it was 47.8 µM; in the test on MCF7 it was 50.3 µM.

As to `COc1cc(Nc2nc(C3=CCN(S(=O)(=O)c4ccc(F)cc4)CC3)nc(N3CCOCC3)n2)cc(OC)c1OC`, the IC50 in the test on HepG2 was found to be 30 µM; in the test on A549, 45.6 µM; with HeLa it was 50.6 µM; with MCF7 it was 29.6 µM.

Consider `COc1cc(Nc2nc(C3=CCN(C(=O)c4ccc(Br)cc4O)CC3)nc(N3CCOCC3)n2)cc(OC)c1OC`, for which the IC50 with HepG2 was determined as 38.9 µM; with A549, 45.9 µM; with HeLa it was 43.9 µM; with MCF7, 28 µM.

For the compound `COc1cc(Nc2nc(C3=CCN(C(=O)N4CCN(C)CC4)CC3)nc(N3CCOCC3)n2)cc(OC)c1OC`, the IC50 was 34.9 µM in the test with HepG2, 34.6 µM with A549, 40.2 µM in the test on HeLa and 40.8 µM in the test on MCF7.

In the case of `COc1cc(Nc2nc(C3=CCN(C(=O)c4cccnc4Cl)CC3)nc(N3CCOCC3)n2)cc(OC)c1OC`, the IC50 is 45 µM in the test on HepG2, 42.9 µM in the test on A549, 41 µM in the test with HeLa and 30.2 µM in the test with MCF7.

`COc1cc(Nc2nc(C3=CCN(S(=O)(=O)c4ccccc4[N+](=O)[O-])CC3)nc(N3CCOCC3)n2)cc(OC)c1OC`: the IC50 in the test with HepG2 was 51 µM; in the test on A549, 33.5 µM; in the test with HeLa, 32 µM; in the test with MCF7, 50.5 µM.

On to `COc1cc(Nc2nc(C3=CCN(C(=O)N4CCN(c5ccc(C)cc5)CC4)CC3)nc(N3CCOCC3)n2)cc(OC)c1OC`, for which the IC50 with HepG2 was determined as 40 µM; in the test with A549, 29.6 µM; with HeLa, 39.6 µM; in the test with MCF7 it was 49.1 µM.

Consider `COc1cc(Nc2nc(C3=CCN(C(=O)N4CCOCC4)CC3)nc(N3CCOCC3)n2)cc(OC)c1OC`, for which the 50% inhibitory concentration (IC50) in the test on HepG2 came out at 29 µM; with A549, 32 µM; with HeLa, 45.2 µM; in the test on MCF7 it was 38.2 µM.

In the case of `COc1cc(Nc2nc(C3=CCN(C(=O)c4ccc(Cl)cc4)CC3)nc(N3CCOCC3)n2)cc(OC)c1OC`, the IC50 with HepG2 was 40.3 µM; in the test with A549, 43.5 µM; with HeLa, 34.8 µM; with MCF7, 38.3 µM.

On to `COc1cc(Nc2nc(C3=CCN(C(=O)Nc4ccncc4)CC3)nc(N3CCOCC3)n2)cc(OC)c1OC`, for which the IC50 in the test with HepG2 came out at 50 µM; with A549, 32 µM; in the test with HeLa it was 34 µM; in the test with MCF7 it was 38.5 µM.

As to `COc1ccc(C(=O)N2CC=C(c3nc(Nc4cc(OC)c(OC)c(OC)c4)nc(N4CCOCC4)n3)CC2)cc1`, the IC50 in the test on HepG2 was 30.6 µM; in the test with A549, 33.3 µM; in the test on HeLa it was 43 µM; in the test with MCF7, 32.1 µM.

Consider `COc1cc(Nc2nc(C3=CCN(S(=O)(=O)c4ccc(Cl)cc4)CC3)nc(N3CCOCC3)n2)cc(OC)c1OC`, for which the IC50 in the test on HepG2 was found to be 49.3 µM; with A549 it was 40.8 µM; in the test on HeLa, 51 µM; in the test on MCF7, 30.6 µM.

Regarding `COc1cc(Nc2nc(C3=CCN(C(=O)Nc4ccc(F)cc4)CC3)nc(N3CCOCC3)n2)cc(OC)c1OC`, the IC50 in the test with HepG2 turned out to be 29.1 µM; in the test on A549, 45.7 µM; with HeLa, 40.1 µM; in the test with MCF7 it was 25.9 µM.

Consider `COc1cc(Nc2nc(C3=CCN(C(=O)c4cnccn4)CC3)nc(N3CCOCC3)n2)cc(OC)c1OC`, for which the IC50 with HepG2 stood at 40 µM; with A549 it was 41.9 µM; in the test on HeLa, 48.3 µM; in the test with MCF7 it was 39.4 µM.

In the case of `COc1cc(Nc2nc(C3=CCN(C(=O)N4CCCC4)CC3)nc(N3CCOCC3)n2)cc(OC)c1OC`, the IC50 with HepG2 is 38.8 µM; with A549, 43.3 µM; with HeLa, 29.4 µM; in the test with MCF7, 34 µM.
